From patent US10561638B2, “Methods for treating dependence” (Biotie Therapies, Inc., priority 2007, dated 2020)

Key:
[1] = in vivo
Method: The pharmacokinetics of nepicastat after a single 40 mg dose was compared in men and women.

rats = assay: Chronic (10 day) dosing behavioral tests in rats
Method: The effects of chronic dosing of nepicastat in rats were examined. Between three and thirteen days prior to the first dosing day the rats were placed inside the startle apparatus and after a five minute acclimation period they were presented with a 118 dB noise burst on average once a minute (a variable inter-trial interval ranging between 30 and 90 seconds will be used) for 20 minutes. The startle responses were measured and a mean for the last twenty startle response was calculated for each rat.
The following behavioral tests were administered during and after chronic dosing; body core temperature, motor activity, acoustic startle reactivity, and pre-pulse inhibition of acoustic startle.
The animals were tested in an enclosed room with a white noise generator running Motor activity tests were conducted immediately after the body core temperature reading taken on dosing day ten (about 3 hours and 35 minutes after the morning daily dose of nepicastat, and SKF-102698, and 20 minutes prior to the daily administration of clonidine and d-amphetamine on dosing day ten). Motor activity tests were run for one hour. A diagnostic program was run on each of the motor activity chambers prior to each test session to assure that the photo beams and light sensors were operating properly. […] D-amphetamine was used as the positive control for this assay.
Rat body core temperatures were obtained by inserting the rectal probe 2 cm into the colon of each rat. Each rat's body core temperature was measured three times and the average of the three reading was calculated. Body core temperature readings were obtained immediately prior to the ten day chronic dosing schedule (to obtain a baseline), and three and half hour after the morning daily dose of nepicastat, and SKF-102698, and 15 minutes prior to the daily administration of clonidine and d-amphetamine, on dosing days one, five and ten. […] Both clonidine (an alpha2 agonist), and d-amphetamine (a dopamine releaser) were used as the positive controls for this assay.
Acoustic startle reactivity (a series of muscle contractions elicited by an intense burst of noise with a rapid onset), and pre-pulse inhibition (sensorimotor gating measured by analyzing any decrease in startle reactivity which occurs when a startling stimulus is immediately preceded by a non startling stimulus) were both measured in eight SR-Lab (San Diego Instruments, San Diego, Calif.) test stations. The rats were placed individually in a Plexiglas cylinder (10 cm diameter) which was housed in a ventilated sound-attenuating enclosure. Acoustic noise bursts (a broad band noise with a rise time and fall time of 1 msec) were presented via a speaker mounted 30 cm above the animal. Also, these speakers produced a 68 dB level of background noise throughout all test sessions. A piezoelectric accelerometer attached below the plexiglass cylinder transduced the subject's movement into a voltage which was then rectified and digitized (on a scale from 0 to 4095) by a PC computer equipped with SR-Lab software and interface assembly. A decibel meter was used to calibrate the speakers in each of the eight test station to ±1% of the mean. Additionally, a SR-Lab calibrating instrument was used to calibrate each of the eight startle detection apparatuses to ±2% of the mean. Startle reactivity and pre-pulse inhibition tests were run concurrently immediately alter the motor activity test (about 4 hours and 40 minutes after the morning daily injection of nepicastat, and SKF-102698, and 10 minutes after a supplemental administration of clonidine and d-amphetamine on dosing day ten).

serum T3 and T4 levels = assay: Thyroid function (serum T3, T4) in iodine-deficient rats; format: in vivo, Sprague-Dawley rats; conditions: for reduction in serum T3 / reduction in serum T4: 1 mg/kg po b.i.d.; for effect on serum T3 and T4 levels: methimazole 1 mg/kg b.i.d. (2 mg/kg/d)
Method: Since the heterocyclic portion of nepicastat is structurally similar to methimazole, a known potent suppressor of mammalian thyroid function, the effects of nepicastat on thyroid function were evaluated at doses of 2.0 and 6.2 mg/kg, po, b.i.d in iodine-deficient Sprague-Dawley rats (n=9-12) for 10 days.
Male Sprague-Dawley rats, weighing 180-200 grams, were fed an iodine deficient diet (Purina, 5891C, Lot 1478, 0.066±0.042 mg iodine/kg sample) ad libitum 14 days prior to treatment. Animals were weighed and randomly assigned to one of the following treatment groups (n=12 per group): nepicastat at 2.0 mg/kg, nepicastat at 6.2 mg/kg, Methimazole at 1 mg/kg, or vehicle at 1 ml/kg. Each group of rats was dosed orally in the evening and the following morning, approximately 12 hours apart, for 10 consecutive days.
Orbital blood samples were taken at day −3, 0, 3, 7, and 9 (day 0 was the first day of dosing). Serum samples were analyzed for T3 and T4 levels using a radioimmunoassay.
To statistically evaluate changes in T3 and T4 levels, a change from baseline was calculated from the day −3 time point. A non-parametric two-way within subject analysis of variance (ANOVA) was conducted. Also a one-way ANOVA was performed to detect if a significant difference from control occurred. Pairwise analyses between controls and each treatment group were carried out using Fisher's LSD strategy to control the experiment-wise error rate. For statistical analysis of catecholamine levels, a one-way ANOVA with factor DOSE was performed. Pairwise analyses between treated and controls at each dose were carried out using Fisher's LSD strategy to control the experiment-wise error rate.

[2] = test system: short-term or working memory in rats; assay: Delayed-matching-to-position (DMTP) test; format: in vivo, Sprague Dawley rats
Method: In the present DMTP study, rats were trained to remember the position of a lever across a scheduled delay of either 0, 8, 16 or 32 s in order to earn food reward. […] Another group of rats received only vehicle treatment throughout the experiment. […] The dependent measures in the present study included percentage of correct choices, the latency to make choice responses and the number of trials which the animals were able to complete during the 70 min test sessions. Changes in the former measure may indicate changes in memory and/or attentional function whereas changes in the latter two measures may be indicative of other non-cognitive effects of the drugs. Matching to position training began next. This and all subsequent training was conducted with the partitions fitted into the operant boxes. The sessions were initially 50 minutes long. Rats were placed in the operant box and the session began when the houselight was illuminated. Following a 30 s intertrial interval (ITI), one of the two levers (the sample lever) was inserted into the chamber. The lever remained inserted into the chamber until a lever-press response occurred. […] As soon as the magazine flap was pressed the magazine light was extinguished and both levers were inserted. […] The magazine light remained on until the flap was pressed. […] A 30 s ITI was initiated before the commencement of a new trial. The lever inserted as the sample lever was semi-randomly determined such that the right and lefthand levers were presented as the sample lever 8 times in a block of 16 trials. Following 24 sessions, the animals were performing the matching to position task with a high degree of accuracy. On Session 25 a variable delay interval was interposed between the depression of the sample lever and presentation of the levers on the choice trial. After a response to the sample lever, the choice levers were inserted following the first flap press occurring after either a 0 s (immediate), 4, 8 or 16 s delay. The order of the four types of trials (0, 4, 8 or 16 s delay) was semi-randomly determined with the constraint that in a 16 trial block, each delay occurred 4 times; twice on a left trial and twice on a right trial. […] The same trial was reinstated following the end of the ITI. From Session 25 onward the time-out period following incorrect choices was omitted and the session length was increased to 70 minutes. […] Due to poor performance at the 64 s delay, however, this delay was not used in any further sessions. On Session 59, delays of 0, 8, 16 and 32 s were used. These delays were used in all subsequent sessions. Only 51 of the 56 rats completed more than 24 trials (correction plus non-correction) during Session 59. These rats were selected and semi-randomly assigned to the following 7 groups such that the groups were matched on performance (percent correct, response latency and number of trials completed): […] Thus, the drug treatments administered to the seven groups during the 11 consecutive days of the present experiment were: The data collected and analyzed in the present DMTP study include 1) the percentage of correct responses; 2) the latency between performance of a response to the sample lever and the performance of the choice response and 3) the total number of correction and non-correction trials completed. The former two dependent measures were collected for the non-correction trials only. […] Two-way analysis of variance (ANOVA) with drug treatment as the between-subjects factor and delay (0, 8, 16 or 32 s) as the within-subjects factor was used to analyze percentage of correct choices and response latency. These analyses were conducted separately for each block of data. Significant interactions were followed by a one-way ANOVA which was conducted at each delay. A significant main effect from a one-way ANOVA was followed by a two-tailed Dunnett's t-test. One-way ANOVA followed by a post hoc Dunnett's test, when appropriate, was used to analyze the mean number of trials completed. […]

[3] = Pilot observation studies in rats, acute and repeated oral administration
Method: Similarly, in a separate study, physostigmine (1, 3, 10 or 30 mg/kg p.o.) or vehicle were administered acutely to groups of 8 rats.
In pilot studies of repeated administration, nepicastat (100 mg/kg p.o.) or vehicle was administered twice daily (06:00 and 18:00 h) for 10 days (once on day 11) to groups of 8 rats. The weights of the animals were monitored throughout the study and, on day 5, the animals were observed ‘blind’ by an independent observer in order to assess any overt behavioural/physiological effects following repeated administration. In a separate study, groups of 8 rats received vehicle or physostigmine (0.3, 1, 3 or 10 mg/kg p.o.) using the same dosing schedule. The weights of the animals were monitored throughout the study.

CC(=O)NCc1c[nH]c(=S)n1[C@H]1CCc2c(F)cc(F)cc2C1 [N-acetyl metabolite of nepicastat]
Cmax and AUC of the N-acetyl metabolite, slow vs fast acetylators [1]: much lower in the slow acetylators

C[C@H](N)Cc1ccccc1 [d-amphetamine]
change in body weight from pre-dose (rats; 10 days): significantly smaller change in body weight | pre-pulse inhibition (rats; dosing day ten): Neither d-amphetamine nor SKF-102698 was significantly different | locomotor activity vs vehicle (rats; dosing day ten, nepicastat 5, 15, 50, SKF-102698 50 mg/kg bid, clonidine 20 μg/kg, d-amphetamine 2 mg/kg bid): significantly higher locomotor activity | body core temperature (rats; dosing days one, five, ten): significantly increasing body core temperature on day one

Cn1cc[nH]c1=S [methimazole]
reduction in serum T3 (serum T3 and T4 levels; day 3, 4 h post-dose): 31% | reduction in serum T4 (serum T3 and T4 levels; day 3, 4 h post-dose): 46% | reduction in serum T3 (serum T3 and T4 levels; day 7, 4 h post-dose): 42% | reduction in serum T4 (serum T3 and T4 levels; day 7, 4 h post-dose): 58% | reduction in serum T3 (serum T3 and T4 levels; day 9, 4 h post-dose): 44% | effect on serum T3 and T4 levels (serum T3 and T4 levels): significantly reduced | effect on serum T3 and T4 levels (serum T3 and T4 levels; listed as Methimazole): significantly (p<0.05) lowered | T4 levels vs vehicle (serum T3 and T4 levels; methimazole 1.0 mg/kg, day nine): marginally (p<0.10) lower

CNC(=O)Oc1ccc2c(c1)[C@]1(C)CCN(C)[C@@H]1N2C [physostigmine, Physostigmine sulphate, reference compound]
all dependent measures ([2]; Block 2): no significant effects on any of the dependent measures | choice accuracy ([2]; Block 3, physostigmine 1.0 mg/kg b.i.d.): delay-independent impairment in choice accuracy | response latency, number of trials completed ([2]; Block 5): did not significantly affect | improvement of DMTP performance ([2]; administered alone, 10 days): did not improve performance | reversal of the effects of scopolamine ([2]; day 11 scopolamine test): did not appear to reverse the effects of scopolamine | convulsions on repeated administration ([3]; physostigmine 3 mg/kg p.o.): 2 of 8 animals convulsed on day 5 | mortality on repeated administration ([3]; physostigmine 10 mg/kg p.o.): 3 of 8 animals were found dead on day 2 | acute toxicity ([3]; physostigmine 30 mg/kg p.o.): Signs of toxicity were observed | effects of repeated administration ([3]; physostigmine 0.3 or 1 mg/kg): no effects | acute doses inducing overt behavioural effects ([3]; physostigmine p.o.): ≥ 3 mg/kg

CN1[C@@H]2C[C@@H](OC(=O)[C@H](CO)c3ccccc3)C[C@H]1[C@@H]1O[C@@H]12 [scopolamine, Scopolamine HBr, reference compound]
number of trials completed ([2]; all scopolamine treated groups): significantly reduced | percentage of correct choices vs Vehicle/Vehicle ([2]; scopolamine HBr 0.1 mg/kg s.c.): significantly impaired percentage of correct choices
